Key:
[1] = tested on: C4-2 cells; experiment: MTT cell growth assay; type: cell-based, human; settings: equimolecular concentrations of LiCl, NaCl, KCl, three days
Experimental: (§1) For MTT-based cell growth assays, cells seeded in 96-well plates were serum-starved for 48 hours, and were then treated with vehicle or different reagents for different time periods as indicated in the figures. MTT assay were carried out using a pre-assembled kit (Sigma) according to the manufacturer's manual.
(§2) To rule out the eventual intervention of the chloride anion and the osmotic disturbance, the effect of LiCl was compared with sodium chloride (“NaCl”) and potassium chloride (“KCl”) at equimolecular concentrations in both LNCaP and PC-3 cell lines. In addition, the androgen-insensitive C4-2 cell line was included. To easily handle the experiments while multiple comparisons were taken in place, a MTT assay was used to assess cell growth.

[2] = tested on: PC-3 cells; experiment: MTT cell growth assay; type: cell-based, human; settings: equimolecular concentrations of LiCl, NaCl, KCl, three days
Experimental: as §1, §2

[3] = tested on: HEK293 cells; experiment: Affymetrix cDNA microarray for LiCl-induced changes; type: cell-based, human; settings: LiCl treatment, data not shown
Experimental: Androgen-insensitive C4-2 cells and HEK293 cells were used for cDNA-based microarray analysis. After serum starvation for 24 hours, cells were left untreated or treated with LiCl (10 mM) in serum free media for 30 minutes whereas the control cells received PBS in the same media. Then 10% FBS was brought back to both control and LiCl pre-treated cells and incubated for another 6 hours. At the end of treatment, total cellular RNAs were extracted using Trizol-based protocol as described (Liao 2005).
Genechip® arrays (Affymetrix Inc, Santa Clara, Calif.) used herein contain almost 45,000 probe sets representing more than 39,000 transcripts derived from approximately 33,000 well substantial human genes. The in vitro-transcription labeling is conducted using the EnzoBio array high yield RNA transcript labeling kit (Affymetrix). Ten micrograms of total RNAs were used for the first strand cDNA synthesis using the SuperscriptChoice system (Invitrogen).
Genechips were hybridized for 16 hours at 45° C. and 60 rpm in Genechip hybridization oven Model 640. After washing the Genechip, the signal intensity was detected using the Agilent Gene Array scanner.
The most dramatic changes were down-regulation of cdc6, cdc25C, cyclins A and E, as well as up-regulation of CDK inhibitor p21^CIP1. […]

[4] = tested on: PC-3 cells; experiment: clonogenic assay; type: cell-based, human; settings: LiCl 10 mM, 14 days
Experimental: For clonogenic assays, 1.0×10^3 cells were seeded in a 35-mm dish and cultured in a medium containing LiCl at the indicated doses. The cultures were monitored daily for colony formation. On day 14, the cultures were washed with phosphate-buffered saline (“PBS”), fixed, and stained as described previously (Liao 2005). The colonies were counted and photographed under an inverted microscope.
Next, the clonogenic assay was used to test the effect of LiCl on cell colony formation. The clonogenic survival fractions of the cells cultured in the presence or absence of increasing concentration of LiCl were measured in two cell lines, androgen refractory PC-3 (data shown) and androgen-responsive LNCaP (data not shown).

[5] = tested on: AR-null PC-3 xenografts; experiment: mouse xenograft model, protocol A; type: in vivo, nude mice; settings: LiCl 2 mg/kg i.p. daily
Experimental: All animal studies were conducted under an approved Institutional Animal Care and Use Committee protocol. Single cell suspensions (2×10^6 cells in 0.1 ml of RPMI1640 medium plus 10% FBS) were inoculated subcutaneously (s.c.) into the rear flanks (two sites/mouse) of 6 to 7 weeks old male nude mice (Charles River, Wilmington, Mass.). For protocol A, mice were randomly divided into two groups (5 animals each). On next day after inoculation, one group of animals received i.p. injection of LiCl at a daily dose of 2 mg/kg body weight. LiCl was dissolved in PBS. The control groups of animals received PBS alone in the same volume. Xenograft development and growth were monitored for 8 weeks. The tumor dimensions were measured twice a week. The tumor volume was calculated by the formula of L×W×H×0.5236 (Miyake 2001). At the end of treatment, xenograft tumors were extirpated, and the final tumor size and weight, as well as animal weight were measured. For protocol B, treatment began until tumor became palpable or 50 mm^3 in size, and LiCl or PBS was injected (5 animals each group) as above for a two-week course. Tumor size and weight were measured at the end of treatment. For BrdU in vivo labeling, the animals were injected i.p. with 0.5 ml of a 10-mM BrdU solution (Invitrogen) 2 hours before sacrifice. For experiments involving LNCaP-BclxL SB216763 subline cells (Liao 2005) were inoculated as above, and SB216763 treatment was started two weeks later when palpable xenografts were established. The SB216763 for animal use was purchased from Biomol (Plymouth Meeting, Pa.) and dissolved in a formula containing 50% N,N-dimethylacetamide (“DMA”), 45% polyethylene glycol 400 (“PEG-400”) and 5% Tween-80. SB216763 (2 mg/kilogram/bodyweight) or the solvent in 20 μl volume was injected i.p. three times a week. Tumor growth was monitored as discussed herein.
This example investigated GSK-3β inhibitor-induced suppression of cancer cell growth in vivo. A mouse xenograft model was used to examine the effect of GSK-3β inhibitor on tumor growth in two different strategies (protocol A and B). In both protocols, LiCl was delivered at a daily dose i.p. of 2 mg/kg of body weight. This dose level is more than 100-fold lower than a therapeutic dose for mental diseases in mouse (Noble 2005) or human (Moore 2002).
In protocol A, LiCl treatment was started on the same day when AR-null PC-3 cancer cells were inoculated into animals. AR-null PC-3 xenografts were developed around 4 weeks after inoculation in PBS-treated control animals.

[6] = tested on: PC-3 cells; experiment: trypan blue viable cell counting; type: cell-based, human
Experimental: (§3) For cell counting assay, cells were seeded at the density of 5×10^4 cells in 12-well plates in duplicates and allowed for attachment overnight. Cells were harvested daily for three days and the number of viable cells was counted using a hemocytometer after staining in trypan blue solution (Liao 2003).
(§4) First, the effect of LiCl on cell growth was investigated. AR-positive, androgen-dependent LNCaP cells or AR-null PC-3 cells were seeded in a 12-well plate overnight and then treated with or without LiCl in different doses.

[7] = tested on: LNCaP cells; experiment: trypan blue viable cell counting; type: cell-based, human
Experimental: as §3, §4

[8] = protocol A, end of 8-week treatment
[9] = LiCl at a dose of less than 3 mM, up to three days

[Cl-].[Li+] [LiCl, Lithium chloride]
cell growth inhibition (MTT) [1]: dramatic inhibition | cell growth inhibition (MTT) [2]: dramatic inhibition | alterations of cell cycle genes (microarray) [3]: not observed | clonogenic surviving fractions [4]: significantly suppressed | animal body weight and daily activities, treatment vs control ([5]; nude mice): no significant difference | abnormality of daily activities / side effects ([5]; nude mice, both protocols A and B): no obvious abnormality of daily activities or any sign of side effect | xenograft development, time after inoculation ([5]; protocol A, PBS control around 4 weeks): 6-7 weeks | tumor volume vs PBS control [5, 8]: significant reduction | tumor weight vs PBS control [5, 8]: significant reduction | inhibition of cell growth (viable cell count) ([6]; LiCl 10 mM): significantly inhibited | mean doubling-time ([6]; LiCl 10 mM (no treatment 21.5 hours)): 30.2 h | inhibition of cell growth (viable cell count) [6, 9]: no obvious inhibition | inhibition of cell growth (viable cell count) ([7]; LiCl 10 mM): significantly inhibited | mean doubling-time ([7]; LiCl 10 mM (no treatment 23.7 hours)): 33.3 h | inhibition of cell growth (viable cell count) [7, 9]: no obvious inhibition

Source: patent publication US20070196514A1, “Prostate cancer treatment with glycogen synthase kinase-3beta inhibitors” (priority 2006, published 2007)
